Experimental data reported in patent publication US8338333B1, “Methods for controlling weeds including kudzu” (priority 2009, dated 2012).

What was measured:
kudzu [1] = conditions: thirteen applications over a five year period; cited from earlier work
kudzu [2] = assay: Field trial (Holcomb): kudzu regrowth, green biomass dry weight per plot; type: in vivo, Pueraria montana (Lour.) Merr. variety lobata (Willd.); conditions: 6 WAT, applied mid September at maximum labeled rates, untreated control .81, Lsd .41
Excerpt: Field trials: Uniform areas of land infested with kudzu were identified in Holcomb and Yazoo City, Miss. Plots were one by two meters separated by a narrow strip to prevent cross-contamination of herbicides in Holcomb. Plots were three by three meters in Yazoo City. Herbicides were applied with an hand held boom sprayer equipped with a Teejet 8002 EVS flat fan nozzles, adjusted to 207 kPa, and applied at 1.3 m/s in a single pass to deliver 61.2 L/ha to the treatment areas. Commercial formulations of herbicides were applied at their maximum labeled rates. Herbicides were applied to both sites in mid September. In Holcomb, vegetation within a 0.3 m^2 area of each test plot was harvested at 6 weeks after treatment. Green plant matter was collected and dried as an estimate of above-ground healthy biomass. Biomass of treated plots was compared to untreated plots to determine percent control. In Yazoo City, the percentage reduction in leaf cover was determined by counting the number of leaves intersected by a grid containing 100 intersections (at 10 centimeter intervals) per one meter square.
Translocation of herbicides to roots is vital to achieving control of established perennial species like kudzu having deep root systems and a high capacity for regrowth. Other weeds such as redvine, silverleaf nightshade, and yellow and purple nutsedge with deep perenniating underground structures may also be more easily controlled. Without being bound by theory, the field application occurred in September when carbon allocation in kudzu shifts to root reserve replenishment which could facilitate herbicide translocation and may account for the greater activity of the combination of trifloxysulfuron and glyphosate on suppressing regrowth.

kudzu [3] = assay: Greenhouse trial: kudzu control by reduction of above-ground green biomass; type: in vivo, Pueraria montana (Lour.) Merr. variety lobata (Willd.); conditions: 2 WAT, vs untreated plants, dry weight basis, rate (units/A) differs per treatment as in Table 1
Method: (§1) Greenhouse trials: Kudzu was established from seed in flats containing a 2:3 (w:w) mixture of soil (Bosket silt clay loam, fine-silty, mixed thermic Aeric Ochraqualf) and potting media. Seedlings were transferred to 10 cm diameter pots containing the same soil mixture when they developed two true leaves. Pots were placed in the greenhouse, set at 30°±2° C., and equipped with supplemental lighting to provide a 14-h photoperiod. Pots were irrigated as needed and fertilized every three weeks with slow release Osmocote® fertilizer at 1.5 g/pot. […] Plants were selected for size uniformity from a population of approximately three times that necessary to establish a test.
(§2) Herbicides were applied with a pneumatic track sprayer with a TeeJet 8002 flat-fan nozzle delivering 187 L/ha water at 179 kPa. The rates utilized in this study were based on the allowable rates according to the label of the herbicide containers. Kudzu was evaluated for herbicide injury expressed as the percentage of above-ground green biomass remaining at 2 weeks after treatment (WAT) compared to untreated plants (control) on a dry weight basis. Treatments were arranged in a randomized complete block design with four replications and the experiment was repeated. Data were analyzed using the Proc Mixed procedure in SAS and means were separated using a Fisher's Protected least significant difference (LSD) at P=0.05.
In greenhouse studies, shoot biomass was determined at 2 WAT. […] For those skilled in the art of weed control, enhanced control resulting from glyphosate and an ALS inhibitor would not be expected. […] Those with high initial activity against kudzu may provide suitable kudzu control when mixed with glyphosate.

kudzu [4] = assay: Glyphosate and trifloxysulfuron at reduced rates on kudzu (Example 2); type: in vivo, Pueraria montana (Lour.) Merr. variety lobata (Willd.)
Method: as §1, §2
The labeled recommended rate of glyphosate for kudzu control was 80 to 106 ounces per acre which was well above the rates tested herein. In Table 2 the rates were 8, 16 and 22 oz formulated glyphosate (WeatherMax™) per acre with trifloxysulfuron at 4.25 grams per acre. The ability to achieve control of kudzu at reduced rates of herbicide was a further indication that a unique effect was observed and allowed control using less pesticide.

mature kudzu vines = assay: Field: post-emergence application to mature kudzu stands (FIG. 4); type: in vivo, Pueraria montana (Lour.) Merr. variety lobata (Willd.); conditions: 3 WAT, single post-emergence application, rates per Table 4
Excerpt: The labeled recommended rate of glyphosate, for kudzu control was 80 to 106 ounces per acre which was well above the rates tested herein. ALS inhibitors were used at label rates. Post-emergence applications of the treatments listed in Table 4 were made to mature kudzu stands growing over a Bermuda grass turf. […] When ALS inhibitors were applied alone, less than 10% control was observed 3 WAT, whereas glyphosate alone provided less than 26% control.

| SMILES | Kudzu Regrowth Gram dry wgt per plot (kudzu [2]) | Control (%), kudzu control based on percent reduction of above-ground green biomass (kudzu [3]) [%] | also measured |
| --- | --- | --- | --- |
| O=C(O)COc1cc(Cl)c(Cl)cc1Cl [2,4,5-trichlorophenoxyacetic acid] |  |  | killing of all kudzu crowns (kudzu [1]): not successful in killing all crowns |
| CCNc1nc(Cl)nc(NC(C)C)n1 [atrazine] | .59 Gram dry wgt per plot |  |  |
| CCOc1nc(F)cc2nc(S(=O)(=O)Nc3c(Cl)cccc3C(=O)O)nn12 [chloransulam] |  | 11 |  |
| COc1cc(Cl)nc(NC(=O)NS(=O)(=O)c2ccccc2C(=O)O)n1 [chlorimuron] |  | 0 |  |
| O=C(O)CNCP(=O)(O)O [glyphosate] | .52 Gram dry wgt per plot |  | Kudzu Control (%) (kudzu [4]; glyphosate 0.35 lb./A alone): 33%; Kudzu Control (%) (kudzu [4]; glyphosate 0.7 lb./A alone): 95%; Kudzu Control (%) (kudzu [4]; glyphosate 1 lb./A alone): 97%; control of mature kudzu (mature kudzu vines): less than 26% |
| CSc1nnc(C(C)(C)C)c(=O)n1N [metribuzin] | .51 Gram dry wgt per plot |  |  |
| COc1nc(C)nc(NC(=O)NS(=O)(=O)c2ccccc2C(=O)O)n1 [metsulfuron] |  | 87 |  |
| COc1cc(OC)nc(NC(=O)NS(=O)(=O)c2ncccc2OCC(F)(F)F)n1 [trifloxysulfuron] |  | 93 | Kudzu Control (%) (kudzu [4]; trifloxysulfuron 4.25 g/A alone): 72% |
